This is an account of results in ChEMBL document CHEMBL1140849, “Selective small molecule inhibitors of the potential breast cancer marker, human arylamine N-acetyltransferase 1, and its murine homologue, mouse arylamine N-acetyltransferase 2” (Bioorg Med Chem, 2009).

In data set [1] the target is T1, Arylamine N-acetyltransferase 2 (Mus musculus, UniProt P50295).
T1 sequence (P50295 whole entry): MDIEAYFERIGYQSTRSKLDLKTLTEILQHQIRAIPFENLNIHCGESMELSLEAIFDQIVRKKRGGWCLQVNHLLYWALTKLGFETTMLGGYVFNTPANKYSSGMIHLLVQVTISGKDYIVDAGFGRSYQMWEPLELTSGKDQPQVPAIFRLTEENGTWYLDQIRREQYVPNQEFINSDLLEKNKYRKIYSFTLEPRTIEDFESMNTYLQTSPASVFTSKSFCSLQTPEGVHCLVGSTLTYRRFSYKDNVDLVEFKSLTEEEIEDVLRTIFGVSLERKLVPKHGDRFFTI
Briefly: Inhibition of mouse recombinant NAT2 assessed as hydrolysis of acetyl coA using PABA as substrate by Ellman's method.

The nature of data set [2]: Cytotoxicity against mouse macrophage at 10 ug/ml after 72 hrs by trypan blue exclusion method. It is filed as cell-based.
Data set [3] addresses T2, Arylamine N-acetyltransferase 1 (Homo sapiens, UniProt P18440).
T2 sequence (P18440 whole entry): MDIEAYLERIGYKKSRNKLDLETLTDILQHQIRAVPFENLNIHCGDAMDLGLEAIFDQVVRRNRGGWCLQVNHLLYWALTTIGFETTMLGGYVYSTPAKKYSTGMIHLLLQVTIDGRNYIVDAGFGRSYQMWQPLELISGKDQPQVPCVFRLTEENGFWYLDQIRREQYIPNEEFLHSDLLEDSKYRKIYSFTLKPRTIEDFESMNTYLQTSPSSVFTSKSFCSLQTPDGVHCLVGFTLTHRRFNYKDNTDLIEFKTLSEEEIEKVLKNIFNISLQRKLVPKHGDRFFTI
As to the kind of experiment: Inhibition of human recombinant NAT1 assessed as hydrolysis of acetyl coA using PABA as substrate by Ellman's method. A general note: DTNB colorimetry detects thiols as they appear.

Data set [4] has as its target T3, Arylamine N-acetyltransferase (Pseudomonas aeruginosa (strain ATCC 15692 / PAO1 / 1C / PRS 101 / LMG12228), UniProt Q9HUY3).
T3 sequence (Q9HUY3 whole entry): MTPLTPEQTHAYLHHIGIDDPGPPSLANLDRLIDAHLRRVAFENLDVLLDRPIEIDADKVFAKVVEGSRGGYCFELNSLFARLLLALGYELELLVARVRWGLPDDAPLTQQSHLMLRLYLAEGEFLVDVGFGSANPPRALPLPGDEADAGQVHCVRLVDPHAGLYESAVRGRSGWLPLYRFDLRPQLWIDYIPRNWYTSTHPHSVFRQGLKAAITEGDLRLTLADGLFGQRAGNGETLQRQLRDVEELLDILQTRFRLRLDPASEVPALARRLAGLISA
As to conditions: read-out: INH.
Description: Inhibition of Pseudomonas aeruginosa recombinant NAT using isoniazid as substrate at 30 uM

For data set [5], the system named is Mycobacterium marinum. As to the kind of experiment: Inhibition of Mycobacterium marinum recombinant NAT using isoniazid as substrate at 30 uM.
The target in data set [6] is T3, Arylamine N-acetyltransferase. As to the kind of experiment: Inhibition of Pseudomonas aeruginosa recombinant NAT using 5-aminosalicylic acid as substrate at 30 uM. As to conditions: read-out: INH.
The target in data set [7] is T4, Arylamine N-acetyltransferase 2 (NAT2) (Mus musculus, UniProt P50295).
T4 sequence (P50295 whole entry): T1 sequence (P50295 whole entry)
Briefly: Inhibition of mouse recombinant NAT2 using 5-aminosalicylic acid as substrate at 30 uM. Conditions: recombinant NAT2, probe 5-aminosalicylic acid.

Data set [8] deals with Mycobacterium marinum. Conditions: 30 uM.
Description: Inhibition of Mycobacterium marinum recombinant NAT using 5-aminosalicylic acid as substrate at 30 uM
Data set [9] addresses T5, Arylamine N-acetyltransferase 2 (NAT2) (Homo sapiens, UniProt P11245).
T5 sequence (P11245 whole entry): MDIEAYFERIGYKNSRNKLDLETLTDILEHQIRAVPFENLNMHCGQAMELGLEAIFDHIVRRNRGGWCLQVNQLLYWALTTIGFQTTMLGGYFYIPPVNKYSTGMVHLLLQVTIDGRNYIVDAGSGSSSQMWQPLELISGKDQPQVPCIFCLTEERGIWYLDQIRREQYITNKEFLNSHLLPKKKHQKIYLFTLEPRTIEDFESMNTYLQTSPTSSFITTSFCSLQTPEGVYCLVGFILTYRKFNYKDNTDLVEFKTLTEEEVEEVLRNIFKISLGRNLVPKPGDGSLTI
Briefly: Inhibition of human recombinant NAT2 using 5-aminosalicylic acid as substrate at 30 uM. Conditions: recombinant NAT2, probe 5-aminosalicylic acid.

Data set [10] concerns the target T1, Arylamine N-acetyltransferase 2. Briefly: Inhibition of mouse recombinant NAT2 using PABA as substrate at 30 uM.
For the next data set, the system named is ZR75. As to the kind of experiment: Inhibition of NAT in human ZR75 cell lysate assessed as acetylation of aryl amine using PABA as substrate at 30 uM. It is filed as cell-free.

Active and inactive are the calls of the source. The rule behind the calls is not given here.

What is called IC50 is the concentration at which inhibition is half-maximal. As to `CCCCCCCCC/C=C1\SC(=S)NC1=O`, in data set [1], the half-inhibitory concentration (IC50) came out at 10.2 µM.

`O=C1NC(=S)S/C1=C\c1cccc2ccccc12`: the half-inhibitory concentration (IC50) in data set [1] was above 30 µM.

Turning to `COc1ccc(/C=C2\SC(=S)N(C)C2=O)cc1`, in data set [1], the IC50 stood at 1 µM.

On to `O=C1NC(=S)S/C1=C\c1ccc2ccccc2c1`, for which the 50% inhibitory concentration (IC50) in data set [1] turned out to be 26.9 µM.

As to `CN1C(=O)/C(=C/c2ccccc2-c2ccccc2)SC1=S`, in data set [1], the IC50 was 10.1 µM.

With `CCCCCCC/C=C1\SC(=S)NC1=O`, the concentration for half-maximal inhibition (IC50) in data set [1] stood at 6.8 µM.

In the case of `CN1C(=O)/C(=C/c2ccc(Cl)cc2)SC1=S`, in [1], the IC50 worked out at 9.4 µM.

In the case of `C/C(=C1/SC(=S)N(C)C1=O)c1ccccc1`, the half-maximal inhibitory concentration (IC50) in data set [1] is above 30 µM.

In the case of `O=C1NC(=S)S/C1=C\c1ccccc1F`, the IC50 in [1] was above 30 µM.

Turning to `NN1C(=O)/C(=C/c2ccccc2O)SC1=S`, the IC50 in data set [1] worked out at 5.1 µM. The compound further registered an Activity in data set [2] below 80%.

In the case of `CCC/C=C1\SC(=S)NC1=O`, in data set [1], the IC50 stood at 7.7 µM.

On to `O=C1NC(=S)S/C1=C\c1ccccc1-c1ccccc1`, for which the half-maximal inhibitory concentration (IC50) in [1] worked out at 16.5 µM.

On to `COc1cccc(/C=C2\SC(=S)NC2=O)c1`, for which the half-maximal inhibitory concentration (IC50) in [3] is above 30 µM. Further, in [4], the inhibition at 30 µM was below 40%. In addition, the inhibition with Mycobacterium marinum [5] is below 40%.

On to `C/C(=C1/SC(=S)NC1=O)c1ccccc1`, for which the IC50 in [1] amounted to 25 µM.

As to `Cc1cccc(/C=C2\SC(=S)N(C)C2=O)c1`, in data set [1], the 50% inhibitory concentration (IC50) is above 30 µM.

As to `COc1ccccc1/C=C1\SC(=S)N(C)C1=O`, the IC50 in data set [1] is above 30 µM.

For the compound `Cc1ccccc1/C=C1\SC(=S)N(C)C1=O`, in data set [1], the IC50 turned out to be 4.4 µM.

For the compound `Cc1ccc(/C=C2\SC(=S)N(C)C2=O)cc1`, the half-maximal inhibitory concentration (IC50) in data set [1] was above 30 µM.

As to `O=C1NC(=S)S/C1=C\Cc1ccccc1`, the half-maximal inhibitory concentration (IC50) in data set [1] stood at 24.2 µM.

Regarding `O=C1NC(=S)S/C1=C\c1ccc(Cl)c(Cl)c1`, in data set [4], the inhibition at 30 µM was below 40%. Further, the inhibition in the data set with Mycobacterium marinum [5] was below 40%.

For `COc1ccccc1/C=C1\SC(=S)NC1=O`, the concentration for half-maximal inhibition (IC50) in data set [3] came out at 17.6 µM. Also, in data set [4], the inhibition at 30 µM is below 40%. The inhibition in the data set on Mycobacterium marinum [5] was below 40%.

On to `O=C1NC(=S)S/C1=C\c1ccc(O)cc1`, for which the concentration for half-maximal inhibition (IC50) in data set [3] turned out to be 16.9 µM. Further, the inhibition at 30 µM in data set [4] is below 40%. Also, in the data set with Mycobacterium marinum [5], the inhibition is below 40%.

With `O=C1NC(=S)S/C1=C\c1ccc(Br)cc1`, the 50% inhibitory concentration (IC50) in data set [1] was above 30 µM.

On to `Cc1ccccc1/C=C1\SC(=S)NC1=O`, for which the inhibition at 30 µM in data set [4] was below 40%.

Regarding `CN1C(=O)/C(=C/c2ccc(F)cc2)SC1=S`, the IC50 in data set [1] is 20.7 µM.

In the case of `NN1C(=O)/C(=C/c2ccccc2-c2ccccc2)SC1=S`, in data set [1], the IC50 came out at 0.3 µM. Also, the Activity in [2] was below 80%.

`O=C1NC(=S)S/C1=C\c1ccc(-c2ccccc2)cc1`: the inhibition at 30 µM in data set [4] was below 40%. Moreover, the inhibition in the data set with Mycobacterium marinum [5] is below 40%.

`COc1ccc(/C=C2\SC(=S)NC2=O)cc1`: in data set [3], the half-inhibitory concentration (IC50) was above 30 µM. Further, in data set [4], the inhibition at 30 µM was below 40%. The inhibition in the data set on Mycobacterium marinum [5] is below 40%.

With `CN1C(=O)/C(=C/c2ccccc2O)SC1=S`, the IC50 in data set [1] came out at 20.1 µM.

Turning to `O=C1NC(=S)S/C1=C\c1cccc(O)c1`, in [4], the inhibition at 30 µM is below 40%. In addition, in [2], the Activity was below 80%. Further, in the data set on Mycobacterium marinum [5], the inhibition is below 40%.

Turning to `O=C1NC(=O)/C(=C/c2ccc3ccccc3c2)S1`, in data set [1], the IC50 was above 30 µM.

`NN1C(=O)/C(=C/c2cc(I)c(O)c(I)c2)SC1=S`: the Activity in [2] is reported as below 80%.

`NN1C(=O)/C(=C/c2ccc(O)cc2)SC1=S`: the IC50 in [1] is 10.1 µM.

Regarding `CN1C(=O)/C(=C/c2ccccc2F)SC1=S`, the half-inhibitory concentration (IC50) in data set [1] stood at 11.8 µM.

Take `O=C1NC(=S)S/C1=C\c1cc(I)c(O)c(I)c1`: the inhibition at 30 µM in data set [6] was 52%; in data set [7], 104%; in [4], below 40%; in data set [9] it was 46%. For the same compound, the results for the inhibition in the data set with Mycobacterium marinum [8] and in the data set on Mycobacterium marinum [5] were 40% and below 40%, respectively. Besides, the Activity result in [10] is given as “Active”; in data set [2], above 80%. The outcome in the data set on ZR75 was Active.

Turning to `CN1C(=O)/C(=C/c2cccc3ccccc23)SC1=S`, the IC50 in data set [1] is above 30 µM.

`NN1C(=O)/C(=C/c2ccc(Cl)cc2)SC1=S`: the IC50 in data set [1] amounted to 5.7 µM.

Take `CN1C(=O)/C(=C/c2ccc(-c3ccccc3)cc2)SC1=S`: the 50% inhibitory concentration (IC50) in data set [1] stood at 5.5 µM.

As for `O=C1NC(=S)S/C1=C\c1cccc(F)c1`, the 50% inhibitory concentration (IC50) in [1] was determined as 6.7 µM.

For the compound `CN1C(=O)/C(=C/c2cccc(F)c2)SC1=S`, the half-maximal inhibitory concentration (IC50) in data set [1] turned out to be 7.3 µM.

Take `O=C1NC(=S)S/C1=C\c1ccc(F)cc1`: the half-inhibitory concentration (IC50) in [3] was determined as 12.9 µM. In addition, in data set [4], the inhibition at 30 µM is below 40%. Also, in the data set on Mycobacterium marinum [5], the inhibition is below 40%.

With `COc1cccc(/C=C2\SC(=S)N(C)C2=O)c1`, the IC50 in data set [1] came out at 13.6 µM.

Take `CN1C(=O)/C(=C/Cc2ccccc2)SC1=S`: the IC50 in data set [1] was above 30 µM.

Regarding `O=C1NC(=S)S/C1=C\c1ccccc1O`, the inhibition at 30 µM in data set [4] was below 40%. In data set [2], this compound yielded an Activity below 80%. The inhibition in the data set on Mycobacterium marinum [5] was below 40%.

For the compound `Cc1cccc(/C=C2\SC(=S)NC2=O)c1`, in data set [4], the inhibition at 30 µM is below 40%. Besides, the inhibition in the data set with Mycobacterium marinum [5] was below 40%.

Turning to `CN1C(=O)/C(=C/c2ccc3ccccc3c2)SC1=S`, the IC50 in data set [1] is 4.7 µM.

For the compound `CCCCC/C=C1\SC(=S)NC1=O`, the IC50 in data set [1] turned out to be 1.3 µM.

Consider `O=C1NC(=S)S/C1=C\c1ccc(Cl)cc1`, for which, in [3], the IC50 stood at 4.7 µM. Also, in data set [4], the inhibition at 30 µM is below 40%. In the data set with Mycobacterium marinum [5], the inhibition is below 40%.

Regarding `CN1C(=O)/C(=C/c2ccc(O)cc2)SC1=S`, the IC50 in [1] is 14 µM.

Regarding `Cc1ccc(/C=C2\SC(=S)NC2=O)cc1`, the IC50 in data set [3] is above 30 µM. Moreover, in data set [4], the inhibition at 30 µM was below 40%.

Take `CN1C(=O)/C(=C/c2ccccc2)SC1=S`: in data set [1], the IC50 is above 30 µM.
